Reference: patent US8754068B2, “Modified C-3 betulinic acid derivatives as HIV maturation inhibitors” (priority 2010, dated 2014)

Test system: recombinant NL4-3 virus (Renilla luciferase in nef, Gag P373S)
Test: HIV cell culture assay (luciferase reporter virus in MT-2 cells)
Assay type: cell-based
Details: NL43
Description: HIV cell culture assay—MT-2 cells and 293T cells were obtained from the NIH AIDS Research and Reference Reagent Program. MT-2 cells were propagated in RPMI 1640 media supplemented with 10% heat inactivated fetal bovine serum, […]. The 293T cells were propagated in DMEM media supplemented with 10% heat inactivated fetal bovine serum (FBS), 100 units/ml penicillin G and 100 μg/ml streptomycin. The proviral DNA clone of NL4-3 was obtained from the NIH AIDS Research and Reference Reagent Program. A recombinant NL4-3 virus, in which a section of the nef gene from NL4-3 was replaced with the Renilla luciferase gene, was used as a reference virus. In addition, residue Gag P373 was converted to P373S. Briefly, the recombinant virus was prepared by transfection of the altered proviral clone of NL4-3. Transfections were performed in 293T cells using LipofectAMINE PLUS from Invitrogen (Carlsbad, Calif.), according to manufacturer's instruction. The virus was titered in MT-2 cells using luciferase enzyme activity as a marker. Luciferase was quantitated using the Dual Luciferase kit from Promega (Madison, Wis.), with modifications to the manufacturer's protocol. The diluted Passive Lysis solution was pre-mixed with the re-suspended Luciferase Assay Reagent and the re-suspended Stop & Glo Substrate (2:1:1 ratio). Fifty (50) μL of the mixture was added to each aspirated well on assay plates and luciferase activity was measured immediately on a Wallac TriLux (Perkin-Elmer). Antiviral activities of inhibitors toward the recombinant virus were quantified by measuring luciferase activity in cells infected for 4-5 days with NLRluc recombinants in the presence serial dilutions of the inhibitor. Table 1 is the key for the data in Table 2.

Row | SMILES | EC50
1 | C[C@H]1[C@H](C)CC[C@]2(C(=O)O)CC[C@]3(C)C(=CC[C@@H]4[C@@]5(C)CC=C(c6ccc(C(=O)O)cc6)C(C)(C)[C@@H]5CC[C@]43C)[C@H]12 [Example 12, (1S,2R,4aS,6aS,6bR,8aR,12aS,12bR,14bS)-10-(4-carboxyphenyl)-1,2,6a,6b,9,9,12a-heptamethyl-1,2,3,4,4a,5,6,6a,6b,7,8,8a,9,12,12a,12b,13,14b-octadecahydropicene-4-a-carboxylic acid] | < 1000 nM
2 | CC(C)[C@@H]1CC[C@]2(CO)CC[C@]3(C)[C@H](CC[C@@H]4[C@@]5(C)CC=C(c6ccc(C(=O)O)cc6)C(C)(C)[C@@H]5CC[C@]43C)[C@@H]12 [Example 10, 4-((1S,3aS,5aR,5bR,7aR,11aS,11bR,13aR,13bR)-3a-(hydroxymethyl)-1-isopropyl-5a,5b,8,8,11a-pentamethyl-2,3,3a,4,5,5a,5b,6,7,7a,8,11,11a,11b,12,13,13a,13b-octadecahydro-1H-cyclopenta[a]chrysen-9-yl)benzoic acid] | < 1000 nM
3 | C=C(C)[C@@H]1CC[C@]2(CO)CC[C@]3(C)[C@H](CC[C@@H]4[C@@]5(C)CC=C(c6ccc(C(=O)O)c(OC)c6)C(C)(C)[C@@H]5CC[C@]43C)[C@@H]12 [Example 5o, 4-((1R,3aS,5aR,5bR,7aR,11aS,11bR,13aR,13bR)-3a-(hydroxymethyl)-5a,5b,8,8,11a-pentamethyl-1-(prop-1-en-2-yl)-2,3,3a,4,5,5a,5b,6,7,7a,8,11,11a,11b,12,13,13a,13b-octadecahydro-1H-cyclopenta[a]chrysen-9-yl)-2-methoxybenzoic acid] | 500 nM
4 | C=C(C)[C@@H]1CC[C@]2(C(=O)O)CC[C@]3(C)[C@H](CC[C@@H]4[C@@]5(C)CC=C(c6ccc(/C=C/C(=O)O)cc6)C(C)(C)[C@@H]5CC[C@]43C)[C@@H]12 [Example 4h, (1R,3aS,5aR,5bR,7aR,11aS,11bR,13aR,13bR)-9-(4-((E)-2-carboxyvinyl)phenyl)-5a,5b,8,8,11a-pentamethyl-1-(prop-1-en-2-yl)-2,3,3a,4,5,5a,5b,6,7,7a,8,11,11a,11b,12,13,13a,13b-octadecahydro-1H-cyclopenta[a]chrysene-3a-carboxylic acid] | < 1000 nM
5 | C=C(C)[C@@H]1CC[C@]2(CO)CC[C@]3(C)[C@H](CC[C@@H]4[C@@]5(C)CC=C(c6ccc(C(=O)O)c(F)c6)C(C)(C)[C@@H]5CC[C@]43C)[C@@H]12 [Example 5m, 2-fluoro-4-((1R,3aS,5aR,5bR,7aR,11aS,11bR,13aR,13bR)-3a-(hydroxymethyl)-5a,5b,8,8,11a-pentamethyl-1-(prop-1-en-2-yl)-2,3,3a,4,5,5a,5b,6,7,7a,8,11,11a,11b,12,13,13a,13b-octadecahydro-1H-cyclopenta[a]chrysen-9-yl)benzoic acid] | < 1000 nM
6 | C=C(C)[C@@H]1CC[C@]2(C(=O)O)CC[C@]3(C)[C@H](CC[C@@H]4[C@@]5(C)CC=C(c6cccc(S(=O)(=O)NC)c6)C(C)(C)[C@@H]5CC[C@]43C)[C@@H]12 [Example 4e, (1R,3aS,5aR,5bR,7aR,11aS,11bR,13aR,13bR)-5a,5b,8,8,11a-pentamethyl-9-(3-(N-methylsulfamoyl)phenyl)-1-(prop-1-en-2-yl)-2,3,3a,4,5,5a,5b,6,7,7a,8,11,11a,11b,12,13,13a,13b-octadecahydro-1H-cyclopenta[a]chrysene-3a-carboxylic acid] | < 1000 nM
7 | C=C(C)[C@@H]1CC[C@]2(C(=O)OC)CC[C@]3(C)[C@H](CC[C@@H]4[C@@]5(C)CC=C(c6ccc(C(=O)O)cc6)C(C)(C)[C@@H]5CC[C@]43C)[C@@H]12 [Example 1b, 4-((1R,3aS,5aR,5bR,7aR,11aS,13aR,13bR)-3a-(methoxycarbonyl)-5a,5b,8,8,11a-pentamethyl-1-(prop-1-en-2-yl)-2,3,3a,4,5,5a,5b,6,7,7a,8,11,11a,11b,12,13,13a,13b-octadecahydro-1H-cyclopenta[a]chrysen-9-yl)benzoic acid] | < 1000 nM
8 | C=C(C)[C@@H]1CC[C@]2(CO)CC[C@]3(C)[C@H](CC[C@@H]4[C@@]5(C)CC=C(c6ccc(C(=O)O)c(C(F)(F)F)c6)C(C)(C)[C@@H]5CC[C@]43C)[C@@H]12 [Example 5s, 4-((1R,3aS,5aR,5bR,7aR,11aS,11bR,13aR,13bR)-3a-(hydroxymethyl)-5a,5b,8,8,11a-pentamethyl-1-(prop-1-en-2-yl)-2,3,3a,4,5,5a,5b,6,7,7a,8,11,11a,11b,12,13,13a,13b-octadecahydro-1H-cyclopenta[a]chrysen-9-yl)-2-(trifluoromethyl)benzoic acid] | < 1000 nM
9 | C=C(C)[C@@H]1CC[C@]2(CO)CC[C@]3(C)[C@H](CC[C@@H]4[C@@]5(C)CC=C(c6ccc(O)c(Cl)c6)C(C)(C)[C@@H]5CC[C@]43C)[C@@H]12 [Example 5g, 2-chloro-4-((1R,3aS,5aR,5bR,7aR,11aS,11bR,13aR,13bR)-3a-(hydroxymethyl)-5a,5b,8,8,11a-pentamethyl-1-(prop-1-en-2-yl)-2,3,3a,4,5,5a,5b,6,7,7a,8,11,11a,11b,12,13,13a,13b-octadecahydro-1H-cyclopenta[a]chrysen-9-yl)phenol] | > 1000 nM
10 | C=C(C)[C@@H]1CC[C@]2(CO)CC[C@]3(C)[C@H](CC[C@@H]4[C@@]5(C)CC=C(c6ccc(O)nc6)C(C)(C)[C@@H]5CC[C@]43C)[C@@H]12 [Example 5e, 5-((1R,3aS,5aR,5bR,7aR,11aS,13aR,13bR)-3a-(hydroxymethyl)-5a,5b,8,8,11a-pentamethyl-1-(prop-1-en-2-yl)-2,3,3a,4,5,5a,5b,6,7,7a,8,11,11a,11b,12,13,13a,13b-octadecahydro-1H-cyclopenta[a]chrysen-9-yl)pyridin-2-ol] | > 1000 nM
11 | C=C(C)[C@@H]1CC[C@]2(CO)CC[C@]3(C)[C@H](CC[C@@H]4[C@@]5(C)CC=C(c6ccc(C(=O)O)cc6C)C(C)(C)[C@@H]5CC[C@]43C)[C@@H]12 [Example 5r, 4-((1R,3aS,5aR,5bR,7aR,11aS,11bR,13aR,13bR)-3a-(hydroxymethyl)-5a,5b,8,8,11a-pentamethyl-1-(prop-1-en-2-yl)-2,3,3a,4,5,5a,5b,6,7,7a,8,11,11a,11b,12,13,13a,13b-octadecahydro-1H-cyclopenta[a]chrysen-9-yl)-3-methylbenzoic acid] | < 1000 nM
12 | C=C(C)[C@@H]1CC[C@]2(C(=O)O)CC[C@]3(C)[C@H](CC[C@@H]4[C@@]5(C)CC=C(c6ccc(C7(C(=O)O)CC7)cc6)C(C)(C)[C@@H]5CC[C@]43C)[C@@H]12 [Example 4c, (1R,3aS,5aR,5bR,7aR,11aS,11bR,13aR,13bR)-9-(4-(1-carboxycyclopropyl)phenyl)-5a,5b,8,8,11a-pentamethyl-1-(prop-1-en-2-yl)-2,3,3a,4,5,5a,5b,6,7,7a,8,11,11a,11b,12,13,13a,13b-octadecahydro-1H-cyclopenta[a]chrysene-3a-carboxylic acid] | < 1000 nM
13 | C=C(C)[C@@H]1CC[C@]2(CO)CC[C@]3(C)[C@H](CC[C@@H]4[C@@]5(C)CC=C(c6cc(C(=O)O)[nH]n6)C(C)(C)[C@@H]5CC[C@]43C)[C@@H]12 [Example 8, 3-((1R,3aS,5aR,5bR,7aR,11aS,11bR,13aR,13bR)-3a-(hydroxymethyl)-5a,5b,8,8,11a-pentamethyl-1-(prop-1-en-2-yl)-2,3,3a,4,5,5a,5b,6,7,7a,8,11,11a,11b,12,13,13a,13b-octadecahydro-1H-cyclopenta[a]chrysen-9-yl)-1H-pyrazole-5-carboxylic acid] | < 1000 nM
